Laboratory results taken from ChEMBL document CHEMBL1201862, “PubChem BioAssay data set” (2004).
Active and inactive are the calls of the source.

How the values were obtained:
Caspase-7 = Caspase-7 (Homo sapiens, UniProt P55210); assay: human caspase-7 inhibitors, dose response, selectivity assay for caspase-6 inhibitor project, biochemical, DEVD-R110 fluorescence, cherry-pick (AID 743295)
[1] = target: T1, Carboxy-terminal domain RNA polymerase II polypeptide A small phosphatase 1 (Homo sapiens, UniProt Q9GZU7); assay: inhibitors of CTDSP1, concentration-response testing, biochemical assay, absorbance-based, actives from ultra-high-throughput screening (AID 540297); format: functional
T1 sequence (Q9GZU7 whole entry): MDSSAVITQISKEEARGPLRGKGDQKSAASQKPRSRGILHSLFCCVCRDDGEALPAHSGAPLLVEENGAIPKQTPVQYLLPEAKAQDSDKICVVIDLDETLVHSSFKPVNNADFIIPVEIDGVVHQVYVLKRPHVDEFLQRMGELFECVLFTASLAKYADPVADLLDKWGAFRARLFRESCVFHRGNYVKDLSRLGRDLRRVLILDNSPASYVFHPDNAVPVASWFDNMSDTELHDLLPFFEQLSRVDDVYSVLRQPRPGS

[2] = target: T2, RNA-binding protein pos-1 (Caenorhabditis elegans, UniProt G5EF15); assay: inhibitors of POS-1/mex-3 RNA binding, dose response, biochemical, fluorescence polarization (AID 1964);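 further: purified POS-1 fused to maltose binding protein made in E. coli; potency of compounds blocking POS-1 binding to fluorescent RNA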
T2 sequence (G5EF15 whole entry): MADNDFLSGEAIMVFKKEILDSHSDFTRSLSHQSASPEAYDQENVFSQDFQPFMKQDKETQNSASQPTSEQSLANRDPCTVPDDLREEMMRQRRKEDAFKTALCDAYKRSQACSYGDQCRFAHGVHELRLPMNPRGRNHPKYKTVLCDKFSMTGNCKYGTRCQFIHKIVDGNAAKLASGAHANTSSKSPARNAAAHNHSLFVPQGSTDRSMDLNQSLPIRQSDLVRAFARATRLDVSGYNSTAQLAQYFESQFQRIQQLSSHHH

Caspase-6 = target: T3, Caspase-6 (Homo sapiens, UniProt P55212); assay: human caspase-6 inhibitors, dose response, biochemical, VEID-R110 fluorescence, cherry-pick (AID 720632)
T3 sequence (P55212 whole entry): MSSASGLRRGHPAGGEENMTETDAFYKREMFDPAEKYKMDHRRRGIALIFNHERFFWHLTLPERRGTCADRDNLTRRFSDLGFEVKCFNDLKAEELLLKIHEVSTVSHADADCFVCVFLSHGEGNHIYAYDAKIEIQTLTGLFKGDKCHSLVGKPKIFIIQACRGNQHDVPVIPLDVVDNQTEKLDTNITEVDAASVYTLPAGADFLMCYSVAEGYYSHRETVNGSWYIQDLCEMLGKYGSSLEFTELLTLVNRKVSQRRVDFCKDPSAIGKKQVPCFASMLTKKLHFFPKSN

[3] = target: T4, Histone-lysine N-methyltransferase NSD2 (Homo sapiens, UniProt O96028); format: biochemical
T4 sequence (O96028 whole entry): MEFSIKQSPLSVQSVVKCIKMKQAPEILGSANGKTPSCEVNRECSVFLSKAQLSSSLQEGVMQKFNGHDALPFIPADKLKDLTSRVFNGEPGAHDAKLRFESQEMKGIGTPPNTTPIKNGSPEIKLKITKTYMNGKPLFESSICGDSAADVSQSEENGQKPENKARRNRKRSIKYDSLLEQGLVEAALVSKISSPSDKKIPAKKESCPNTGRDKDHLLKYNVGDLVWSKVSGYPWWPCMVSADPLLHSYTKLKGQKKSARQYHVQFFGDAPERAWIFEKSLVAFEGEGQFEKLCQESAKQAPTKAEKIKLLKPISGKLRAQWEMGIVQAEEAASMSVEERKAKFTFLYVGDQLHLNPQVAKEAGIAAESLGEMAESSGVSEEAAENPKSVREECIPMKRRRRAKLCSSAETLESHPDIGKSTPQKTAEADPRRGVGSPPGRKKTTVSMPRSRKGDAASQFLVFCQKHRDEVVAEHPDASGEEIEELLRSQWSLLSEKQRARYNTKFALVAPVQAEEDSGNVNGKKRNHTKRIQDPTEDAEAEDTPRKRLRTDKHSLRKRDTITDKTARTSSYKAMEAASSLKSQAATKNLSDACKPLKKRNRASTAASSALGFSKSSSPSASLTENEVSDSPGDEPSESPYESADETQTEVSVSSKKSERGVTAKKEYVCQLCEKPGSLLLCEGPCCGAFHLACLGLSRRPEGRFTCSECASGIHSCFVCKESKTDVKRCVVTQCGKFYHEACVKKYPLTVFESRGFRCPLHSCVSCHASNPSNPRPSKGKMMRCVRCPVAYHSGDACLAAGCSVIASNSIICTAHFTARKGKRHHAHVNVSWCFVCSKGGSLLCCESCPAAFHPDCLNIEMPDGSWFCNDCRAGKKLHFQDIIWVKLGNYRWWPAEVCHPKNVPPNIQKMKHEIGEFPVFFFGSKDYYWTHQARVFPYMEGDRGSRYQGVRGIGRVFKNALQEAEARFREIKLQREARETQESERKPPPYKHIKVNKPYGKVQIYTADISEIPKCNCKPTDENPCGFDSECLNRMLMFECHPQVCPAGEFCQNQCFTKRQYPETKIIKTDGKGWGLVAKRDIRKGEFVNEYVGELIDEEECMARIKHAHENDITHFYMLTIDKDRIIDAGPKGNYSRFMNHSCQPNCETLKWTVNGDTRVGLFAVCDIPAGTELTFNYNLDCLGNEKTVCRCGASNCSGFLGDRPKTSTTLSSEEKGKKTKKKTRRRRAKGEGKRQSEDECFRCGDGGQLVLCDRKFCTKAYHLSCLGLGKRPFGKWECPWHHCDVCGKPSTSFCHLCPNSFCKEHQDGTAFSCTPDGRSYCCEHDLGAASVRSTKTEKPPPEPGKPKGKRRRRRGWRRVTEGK

Caspase-3 = target: T5, Caspase-3 (Homo sapiens, UniProt P42574); assay: caspase-3 enzyme inhibitors, selectivity check, dose response, selectivity assay for caspase-6 allosteric inhibitor project, biochemical, fluorescence, cherry-picked samples (AID 743291)
T5 sequence (P42574 whole entry): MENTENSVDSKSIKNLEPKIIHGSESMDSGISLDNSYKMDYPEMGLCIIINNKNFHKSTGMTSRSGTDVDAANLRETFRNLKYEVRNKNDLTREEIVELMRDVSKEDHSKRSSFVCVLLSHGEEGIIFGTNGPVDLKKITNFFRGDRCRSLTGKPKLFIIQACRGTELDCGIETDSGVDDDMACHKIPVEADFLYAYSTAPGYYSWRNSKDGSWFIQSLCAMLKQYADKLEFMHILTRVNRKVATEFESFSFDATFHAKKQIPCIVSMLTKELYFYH

[4] = target: T6, Zinc finger protein mex-5 (Caenorhabditis elegans, UniProt Q9XUB2); assay: MEX-5/TCR-2 RNA interaction inhibitors, dose response, biochemical, C. elegans, fluorescence polarization (AID 1960)
T6 sequence (Q9XUB2 whole entry): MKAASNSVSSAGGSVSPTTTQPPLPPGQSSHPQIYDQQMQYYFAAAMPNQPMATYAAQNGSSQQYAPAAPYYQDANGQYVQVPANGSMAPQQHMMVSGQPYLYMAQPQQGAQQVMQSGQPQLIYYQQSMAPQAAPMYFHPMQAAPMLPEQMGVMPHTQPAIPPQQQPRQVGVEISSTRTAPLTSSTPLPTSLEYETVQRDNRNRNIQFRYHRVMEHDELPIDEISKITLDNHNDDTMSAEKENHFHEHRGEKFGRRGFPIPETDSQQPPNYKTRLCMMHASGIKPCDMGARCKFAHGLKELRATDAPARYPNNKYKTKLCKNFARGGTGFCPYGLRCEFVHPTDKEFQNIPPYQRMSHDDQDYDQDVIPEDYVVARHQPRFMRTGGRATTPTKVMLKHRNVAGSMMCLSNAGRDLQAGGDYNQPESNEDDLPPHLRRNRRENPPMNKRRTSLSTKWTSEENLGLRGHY

[5] = off-target signal loss in HeLa-CEM21 co-culture – HeLa F-luc CTL cells, cherry-picked, counter-screen for HIV-1 Env fusion inhibitor project, dose response (AID 652040); format: functional, cell-based;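 further: potency for signal decrease marking cytotoxic or nonspecific inhibition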
[6] = control 3'UTR Renilla luciferase suppression, dose response, counter-screen for Shn3 inhibitor project, cell-based, Clone20-Shn3RL, cherry-picked (AID 624133); format: functional
[7] = target: COUP transcription factor 2 (Homo sapiens, UniProt P24468); assay: Luminescence-based cell-based high throughput dose response assay to identify inhibitors of COUP-TFII (NR2F2).; format: functional;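 further: HEK293 cells transiently cotransfected with COUP-TFII expression vector and reporter; luciferase reporter luminescence driven by COUP-TFII from the pX2-168 reporter plasmid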
Galanin receptor type 3 = Galanin receptor type 3 (Homo sapiens, UniProt O60755); assay: Fluorescence-based cell-based primary high throughput dose response assay to identify antagonists of the Galanin Receptor 3 (GalR3).; format: functional
[8] = HepG2 cell cytotoxicity, dose response, cytotoxicity control for Shn3 inhibitor project, CellTiter-Glo, cherry-picked (AID 624134); format: functional, cell-based
[9] = ZM109 Env clade C HIV-1 fusion inhibitors, dose response, HeLa effector, CEM target cells, luciferase, cherry-pick (AID 652058); format: functional, cell-based
cells = format: functional, cell-based; details: HEK-CNG
[10] = inhibitors of clade B AD8 Env fusion, dose response, cell-based, cherry-pick (AID 652062); format: functional;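 further: luciferase signal from cell-cell fusion driven by HIV-1 clade B AD8 Env; potency is for inhibitors of fusion seen as a drop in luminescence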
[11] = Shn3 3'UTR reporter inhibitors, dose response, cell-based, Clone20 osteoblasts, firefly luciferase, cherry-picked (AID 624132); format: functional;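 further: firefly luciferase luminescence from reporter carrying the Shn3 3'UTR in osteoblasts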
[12] = inhibitors of HIV Env-driven cell fusion, dose response, cherry-pick (AID 652057); format: functional, cell-based
HEK293 [13] = assay: inhibitors of LMP1-driven NF-kB reporter, dose response, cell-based, HEK293, luciferase, cherry-pick (AID 588343); format: functional; details: Homo sapiens
[14] = A549 cell cytotoxicity, dose response, cytotoxicity control, plate reader, cherry-pick, antagonist series (AID 743412); format: functional, cell-based
[15] = LGR2 antagonists, dose response, cell-based, HEK293, CRE-luciferase reporter, cherry pick, set 2 (AID 743343); format: functional;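 further: transfected cells were stimulated with diluted bursicon conditioned medium after compound addition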
[16] = HepG2 cell cytotoxicity, dose response, cytotoxicity control, plate reader, cherry-pick, antagonist series (AID 743416); format: functional, cell-based
[17] = MC4R antagonists, dose response, counter-screen for LGR2 antagonist project, cell-based, plate reader, cherry pick (AID 743444); format: functional;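 further: transfected HEK 293 cells stimulated with alpha-MSH peptide; potency of inhibitors of the alpha-MSH evoked signal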
[18] = HEK293 cell cytotoxicity, dose response, cytotoxicity control, plate reader, cherry-picked samples (AID 743446); format: functional, cell-based
Protein skinhead-1 = target: T7, Protein skinhead-1 (Caenorhabditis elegans, UniProt P34707); format: functional
T7 sequence (P34707 whole entry): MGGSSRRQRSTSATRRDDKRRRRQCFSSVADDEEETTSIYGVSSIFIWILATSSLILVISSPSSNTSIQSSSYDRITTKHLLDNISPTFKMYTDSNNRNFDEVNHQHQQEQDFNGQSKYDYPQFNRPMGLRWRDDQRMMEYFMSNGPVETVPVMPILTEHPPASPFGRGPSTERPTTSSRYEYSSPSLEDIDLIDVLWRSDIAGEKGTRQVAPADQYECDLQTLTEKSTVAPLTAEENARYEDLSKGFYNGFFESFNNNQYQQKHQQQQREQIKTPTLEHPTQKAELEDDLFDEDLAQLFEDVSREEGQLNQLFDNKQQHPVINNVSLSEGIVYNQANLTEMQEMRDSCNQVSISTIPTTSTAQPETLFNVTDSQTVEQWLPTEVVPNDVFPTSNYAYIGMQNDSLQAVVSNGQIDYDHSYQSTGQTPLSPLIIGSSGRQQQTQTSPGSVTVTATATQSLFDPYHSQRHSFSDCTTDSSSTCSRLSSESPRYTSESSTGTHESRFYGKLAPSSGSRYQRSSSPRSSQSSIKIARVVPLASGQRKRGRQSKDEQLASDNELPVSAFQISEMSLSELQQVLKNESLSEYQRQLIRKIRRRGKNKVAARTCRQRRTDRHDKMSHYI

[19] = inhibitors of control Renilla luciferase reporter, dose response, counter-screen for Shn3 3'UTR targeting project, Clone20-Shn3RL cells, dual-Glo, cherry-pick, set 2 (AID 720724); format: functional, cell-based; details: Dual-Go Shn3RL
[20] = reduction of Shn3 3'UTR firefly luciferase signal, dose response, Schnurri-3 inhibitor project, cell-based, Clone20 osteoblasts, cherry-pick, set 2 (AID 720490); format: functional;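 further: actives lower the luminescence signal as inhibitors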
Vero = assay: cells; format: functional; details: Chlorocebus sabaeus
HEK293 [21] = assay: HEK293T cell cytotoxicity, dose response, cytotoxicity control, ATP luminescence, cherry-pick samples (AID 687005); format: functional, cell-based; details: Homo sapiens;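 further: cells exposed to compound for 48 hours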
[22] = HEK293 Cytotoxicity Assay Measured in Cell-Based System Using Plate Reader - 7071-01_Inhibitor_Dose_CherryPick_Activity_Set2.; format: functional

Galanin receptor type 3, sequence (O60755 whole entry): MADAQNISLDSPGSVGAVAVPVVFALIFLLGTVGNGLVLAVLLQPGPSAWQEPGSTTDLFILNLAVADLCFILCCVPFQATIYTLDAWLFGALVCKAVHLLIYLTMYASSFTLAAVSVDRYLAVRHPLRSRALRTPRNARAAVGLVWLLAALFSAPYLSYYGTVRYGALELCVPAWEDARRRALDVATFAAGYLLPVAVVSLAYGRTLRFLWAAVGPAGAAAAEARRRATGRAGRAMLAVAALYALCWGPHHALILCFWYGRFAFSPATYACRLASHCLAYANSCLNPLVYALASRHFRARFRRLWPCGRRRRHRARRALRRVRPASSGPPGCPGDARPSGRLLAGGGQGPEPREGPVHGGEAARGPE
COUP transcription factor 2, sequence (P24468 whole entry): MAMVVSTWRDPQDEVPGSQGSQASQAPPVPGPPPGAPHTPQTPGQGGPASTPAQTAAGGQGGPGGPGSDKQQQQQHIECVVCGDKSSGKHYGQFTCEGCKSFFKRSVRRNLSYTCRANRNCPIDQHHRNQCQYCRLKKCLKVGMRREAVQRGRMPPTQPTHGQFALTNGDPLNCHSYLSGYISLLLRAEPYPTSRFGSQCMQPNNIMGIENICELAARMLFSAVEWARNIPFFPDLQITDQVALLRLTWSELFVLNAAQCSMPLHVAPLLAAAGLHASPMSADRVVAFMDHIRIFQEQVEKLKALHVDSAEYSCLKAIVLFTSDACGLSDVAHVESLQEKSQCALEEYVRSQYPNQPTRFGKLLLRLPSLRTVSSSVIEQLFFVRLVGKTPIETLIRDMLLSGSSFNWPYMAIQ
Caspase-7, sequence (P55210 24-198 limits assumed): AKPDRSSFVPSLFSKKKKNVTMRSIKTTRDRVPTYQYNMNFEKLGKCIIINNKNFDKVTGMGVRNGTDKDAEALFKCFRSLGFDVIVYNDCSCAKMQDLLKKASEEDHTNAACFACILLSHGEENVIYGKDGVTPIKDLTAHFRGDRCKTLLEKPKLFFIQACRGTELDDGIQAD
Caspase-7, sequence (P55210 207-303 limits assumed): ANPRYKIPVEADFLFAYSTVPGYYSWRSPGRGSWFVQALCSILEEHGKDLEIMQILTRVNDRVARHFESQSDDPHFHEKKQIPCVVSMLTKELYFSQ

Cc1cc(C=O)c(C)n1-c1ccc(Cl)c(C(=O)O)c1
AC50 (Caspase-7): > 70 µM (inactive) | IC50 [1]: 4.61 µM (active) | EC50 [2]: > 300 µM (not active) | AC50 (Caspase-6): 1.47 µM (active) | AC50 [3]: 10.6 µM (active) | AC50 (Caspase-3): 43.1 µM (active) | EC50 [4]: > 300 µM (not active)

c1ccc(CNc2ncnc3ccccc23)cc1
AC50 [5]: 15 µM (active) | AC50 [6]: 18.9 µM (active) | IC50 [7]: 9.32 µM (active) | IC50 (Galanin receptor type 3): 1.25 µM (active) | AC50 [8]: 5.24 µM (active) | AC50 [9]: 3.66 µM (active) | EC50 (cells): > 29.9 µM (inactive) | AC50 [10]: 4.91 µM (active) | AC50 [11]: 1.5 µM (active) | AC50 [12]: 10.7 µM (active)

O=C(Nc1ccc2c(c1)OCCO2)c1ccccn1
AC50 (HEK293 [13]): 2.3 µM (active) | AC50 [14]: 19.9 µM (active) | AC50 [15]: 3.29 µM (active) | AC50 [16]: 48.5 µM (active) | AC50 [17]: 2.75 µM (active) | AC50 [18]: 27.3 µM (active)

O=C(CSc1c2c(nc3ccc(Cl)cc13)CCCC2)NCc1ccco1
AC50 [6]: 31.2 µM (active) | IC50 (Protein skinhead-1): > 100 µM (inactive) | AC50 [19]: 44.7 µM (active) | AC50 [11]: 5.71 µM (active) | AC50 [20]: 8.55 µM (active) | CC50 (Vero): > 25 µM (active)

O=C(Nc1ccccc1)N1CCCCN2[C@H](C1)[C@H](c1ccc(C#CC3CC3)cc1)[C@@H]2CO
AC50 (HEK293 [21]): 40.1 µM (active) | AC50 [22]: 40.1 µM (active)
